Where two headings read alike, the source gives them in different places.
Tests used:
SARS-CoV-2 = settings: Vero B4 cell culture; Schumann et al. (2020); cited from earlier work
[1] = system: murine peritoneal macrophages
From the text: Female C57131/6 mice (6-8 weeks old) were purchased from Envigo (San Petro al Natisone, Udine, Italy) and housed under standard laboratory conditions (specific-pathogen free). Food and water were applied ad libitum. Animal handling and the study protocol were in accordance with international guidelines.
Four days after i.p. injection of 3% thioglycolate medium (w/v in distilled water; St Louis, MO USA), murine peritoneal macrophages (PM) were isolated according to the protocol of Zhang et al. (Curr. Protoc. Immunol. 2008, Chapter 14, Unit 14.1).
Briefly, cells were collected by injecting 10 ml of complete medium (DMEM/F12 Medium containing 10% fetal calf serum) into the peritoneal cavity using a 30 cc syringe attached to a 19-G needle, followed by slowly withdrawing the lavage fluid. Cells were washed twice in PBS (phosphate buffered saline) and counted.
One hour prior to LPS (lipopolysaccharide) stimulation (0.1 μg/ml; Escherichia coli 055:B5, St Louis, MO USA), cells (0.5×10^6 cells/well in 24-well plates with 1 ml total volume of medium) were pre-treated with scalar concentrations of 5-amino-2,3-dihydro-1,4-phthalazinedione sodium salt (ranging from 1 mM to 0.025 mM). Two independent experiments (each using cells pooled from three mice) were performed and secreted cytokine levels were determined 24, 48 and 72 h after LPS stimulation using ELISA technique.

[2] = system: cigarette smoke-induced 3-nitrotyrosine formation in the lung parenchyma; settings: for 3-nitrotyrosine stained surface area, mean ± SEM: n=5
From the text: The isolated, ventilated and perfused mouse lung system (ILU) is an established model for studying acute effects of various conditions and drugs on lung parenchyma and vasculature. It is mainly used for examining effects of hypoxia and for evaluating the efficacy of potential drugs on the hypoxic pulmonary vasoreaction (cf. Weissmann et al. (2006) Proc Natl Acad Sci USA 103: 19093-19098).
C57BL/6J mice (n=25, 5 per group; male/female, 3-6 months, 20-30 g; Charles River GmbH, Sulzfeld, Germany) were anesthetized with a ketamine (100 mg/kg body weight) and xylazine (20 mg/kg body weight) intraperitoneal injection (Ceva Tiergesundheit GmbH, Dusseldorf, Germany) containing heparin (50 I.E. heparin/g body weight; Ratiopharm GmbH, Ulm, Germany). […] Lungs were ventilated in an isolated chamber using normoxic gas (21% O2, 5% CO2, 74% N2; 150 breaths per minute at the PEEP (positive end-expiratory pressure) of 3 cm H2O) and perfused with a modified Krebs-Henseleit buffer (120.0 mM NaCl, 4.3 mM KCl, 1.1 mM KH2PO4, 2.4 mM CaCl2, 1.3 mM MgCl2, 13.14 mM glucose, 0.25 mM hydroxyethyl starch 200000/0.5, 25.0 mM NaHCO3 adjusted to a constant pH range of […] L-arginine; Serag-Wissner GmbH & Co. KG, Naila, Germany) at a temperature of 37° C. Lung weight, right and left ventricle pressure, as well as ventilatory pressure were monitored and recorded during the whole experimental procedure. After 5-10 minutes, when the lung was properly flushed and all the parameters were stable, 5-amino-2,3-dihydro-1,4-phthalazinedione sodium salt was applied by adding 150 μl of a stock solution to 15 ml of the circulating perfusion buffer. The substance was applied 10 minutes prior to the first cigarette smoke application. Cigarette smoke was applied via trachea while lung is perfused with the buffer containing 5-amino-2,3-dihydro-1,4-phthalazinedione sodium salt. […] 50 ml of the cigarette smoke were taken via a syringe and applied to the lung via trachea (FIG. 4A) in deep breaths (periodic inflation for 3-4 s) over a period of 5 min. The application was done manually while carefully monitoring the inspiratory pressure to avoid damage of the lung. The cigarette smoke application was repeated three times with a 1 hour break in-between.
Five treatment groups (n=5, respectively) were investigated: • A: room air exposure • B: cigarette smoke+diluent (buffer solution) • C: cigarette smoke+0.5 mM 5-amino-2,3-dihydro-1,4-phthalazinedione sodium salt • D: cigarette smoke+1 mM 5-amino-2,3-dihydro-1,4-phthalazinedione sodium salt • E: cigarette smoke+2 mM 5-amino-2,3-dihydro-1,4-phthalazinedione sodium salt
5-amino-2,3-dihydro-1,4-phthalazinedione sodium salt Form I was dissolved in water for injection (vehicle) at the required concentrations described above. Stock solutions were prepared in water for injection. Further 1:100 dilutions were made with modified Krebs-Henseleit buffer (see above). Stock solutions were stored at −70° C. in appropriate aliquots. The required amount of stock solution was thawed, and the corresponding working solution was prepared for immediate use.
One hour after the third cigarette smoke application lungs were removed from the system and fixed by inflating with formalin solution (via trachea) at the pressure of 12-15 cm H2O for two hours at room temperature. Afterwards the fixed lungs were kept in PBS (phosphate buffer saline, see below) at +4° C. until further dehydration and paraffin embedding. Paraffin blocks were cut 3 μm thick, dried overnight at 37° C. and stained for 3-nitrotyrosine (3-NT).

dyspnea = settings: human, in vivo
joint pain = settings: human, in vivo
chronic fatigue = settings: human, in vivo
[3] = 1 mM, pre-treatment 1 h prior to LPS (0.1 μg/ml), LPS only = 100%, C57 mice PMs

Nc1cccc2c(=O)[nH][nH]c(=O)c12.[Na] [5-amino-2,3-dihydro-1,4-phthalazinedione sodium salt]
replication of SARS-CoV-2 (SARS-CoV-2): almost completely block | reduction of IL-1-beta level [1, 3]: ~50% | reduction of IL-6 level [1, 3]: ~80% | reduction of IL-12 level [1, 3]: ~60% | reduction of TNF-alpha level [1, 3]: about 40% | cytokine reduction in PMs of a second mouse strain (Balb/c) ([1]; Balb/c PMs, six concentrations ranging from 1 mM to 0.25 mM, data not shown): clear dose-dependency | cytokine secretion of unstimulated murine PMs ([1]; no LPS stimulation, data not shown): did not affect | cigarette smoke induced 3-nitrotyrosine formation (immunohistochemistry, in words) ([2]; 0.5 mM in perfusion buffer): moderate effect | cigarette smoke induced 3-nitrotyrosine formation (immunohistochemistry, in words) ([2]; 1 mM in perfusion buffer): almost completely abolished | cigarette smoke induced 3-nitrotyrosine formation (immunohistochemistry, in words) ([2]; 2 mM in perfusion buffer): almost completely abolished | 3-nitrotyrosine stained surface area, mean ± SEM ([2]; cigarette smoke + 0.5 mM in perfusion buffer): 2.24 ± 0.28 % area | 3-nitrotyrosine stained surface area, mean ± SEM ([2]; cigarette smoke + 1 mM in perfusion buffer): 0.72 ± 0.26 % area | 3-nitrotyrosine stained surface area, mean ± SEM ([2]; cigarette smoke + 2 mM in perfusion buffer): 0.37 ± 0.13 % area | physical performance (dyspnea) (dyspnea): continuous improvement of the physical performance | joint pain (joint pain): continuous waning of the joint pain | symptoms of chronic fatigue (chronic fatigue): continuous waning of the symptoms

Reference: patent publication US20240075029A1, “LUMINOL FOR THE PROPHYLAXIS AND THE TREATMENT OF SEQUELAE OF A SARS-COV-2 INFECTION” (METRIOPHARM AG, priority 2020, published 2024)
